Values of other authors in patent US20230314440A1, “METHOD OF TREATING CANCER” (priority 2020, published 2023).

Test system: metastatic renal cell carcinoma (RCC)
Details: patients with metastatic RCC; ESMO 2018, Presentation No. 882P

## COc1cc2nccc(Oc3ccc(NC(=O)C4(C(=O)Nc5ccc(F)cc5)CC4)cc3)c2cc1OC [cabozantinib, N-(4-{[6,7-bis(methyloxy)quinolin-4-yl]oxy}phenyl)-N′-(4-fluorophenyl)cyclopropane-1,1-dicarboxamide]
  effect on systemic tumor immunity: has an impact on systemic tumor immunity
